{"source": "patent US9623084B2", "about": "“Methods for treating multiple sclerosis” (UNIVERSITY OF SOUTHERN CALIFORNIA, priority 2013, dated 2017)", "key": {"[1]": {"tested_on": "Normal human progenitor cells (neurosphere cultures)", "assay": "A(1-7) treatment in in vitro neurosphere cultures", "type": "cell-based", "method": "Normal human progenitor cells were purchased from Clonetics (San Diego, Calif.) and cultured in Neural Progenitor Cell Maintenance Medium (NPMM) [Neural Progenitor Basal Medium containing human recombinant fibroblast growth factor-beta, human recombinant epidermal growth factor, neural survival factors, gentamycin and amphotericin B)]. The cells were thawed, diluted into NPMM and cultured for 24 hours in a 75 cm^2 flask. Until studies to assess differentiation, the cells were cultured in dedifferentiated spheroids.\nIn order to assess the differentiation of neuronal cells, the cells were seeded upon wells coated with 0.05% polyethyleneimine (PEI) substrate in borate buffer solution. The wells of a 96 well plate were coated with 0.05 ml of this solution overnight at room temperature. After the incubation, the substrate was removed by aspiration, rinsed with sterile water and allowed to dry before seeding of cells. Four days after plating, the number of cells undergoing differentiation, as assessed by neurite outgrowth) was counted"}, "[2]": {"tested_on": "MOG-EAE in C57BL/6 mice (chronic progressive model of MS)", "assay": "A(1-7) treatment in the chronic progressive MOG-EAE model of MS", "type": "in vivo", "details": "for disease course (clinical scores): vs control non-treated immunized mice, up to 50 days post immunization"}, "[3]": {"tested_on": "PLP-EAE in SJL/J mice (relapsing-remitting model of MS)", "assay": "A(1-7) treatment in the relapsing-remitting PLP-EAE model of MS", "type": "in vivo", "details": "FIG. 1C", "from_the_text": "Multiple Sclerosis (MS) is a chronic autoimmune and neurodegenerative disease of the central nervous system (CNS) that is characterized by focal infiltration of leukocytes, including myelin-specific T cells, into the CNS, resulting destruction of myelin, demyelination, oxidative stress, axonal loss and ultimately, clinical symptoms and neurological disability. Experimental autoimmune encephalomyelitis (EAE) is a well-established animal model of MS that mimics many of the features of MS. We evaluated the ability of angiotensin peptide A(1-7) to modulate EAE disease course. For this study we used two common EAE models to study the efficacy of A(1-7), one that replicates the chronic progressive form of MS and the other that follows a relapsing-remitting course of the disease. Mice were immunized with peptides corresponding to major immunodominant regions of two myelin proteins: myelin oligodendrocyte protein 35-55 (MOG-EAE) immunization in C57BL6 mice to induce a chronic progressive disease, or proteolipid protein 139-151 (PLP-EAE) immunization in SJL/J mice induced a relapsing-remitting disease.\nFemale SJL/J mice, 10-weeks-old, were immunized subcutaneously in 4 sites on their flank (approximately 50 μl each) with 120 μg PLP-139-151 peptide emulsified in 200 μl CFA at baseline. Mice were anesthetized (as described for MOG-EAE) for the immunizations. SJL/J mice are highly susceptible to EAE induction by this method and require only one immunization to achieve disease in 90-100% of mice.\nPLP-EAE is a relapsing form of disease in which the first acute attack of neurological symptoms occurs at approximately 10-13 days after immunization, peaks between day 15 and 18, is followed by a period of recovery, or remission for about 10 days. 25-40 days after immunization ˜75% of mice develop a second wave of paralysis (relapse). Relapses are often less severe and of shorter duration than the first attack. PLP-EAE mimics the relapsing-remitting form of MS. […]"}, "[4]": {"details": "treatment started 10 days after immunization, vs control non-treated immunized mice"}}}
{"substance": "Asp-Arg-Val-Tyr-Ile-His-Pro (DRVYIHP) [A(1-7), angiotensin peptide A(1-7)]", "values": [{"measurement": "neurite outgrowth and proliferation", "setting": "[1]; PEI-coated wells, counted four days after plating, increasing doses of A(1-7), FIG. 4", "result": "promotes neurite outgrowth and proliferation with increasing doses of A(1-7)"}, {"measurement": "number of cells able to undergo differentiation (proliferation)", "setting": "[1]; suspension culture in the presence of A(1-7) for 4-7 days prior to placement on an adherent substrate", "result": "an increase in the number of cells able to undergo differentiation (proliferation)"}, {"measurement": "disease progression and severity", "setting": "[2]; 1 mg/kg/day continuous delivery (Alzet pump) vs control, started day 11, FIG. 3", "result": "highly effective at inhibiting disease progression and maintaining reduced severity of the disease"}, {"measurement": "restoration from disability", "setting": "[2]; 2 mg/kg/day continuous delivery vs control saline treated mice, FIG. 3 and FIG. 4A", "result": "promotes restoration from disability"}, {"measurement": "clinical disease score", "setting": "[2]; all doses, twice daily injection, vs control saline treated mice, started day 11, FIG. 2", "result": "improved clinical disease score"}, {"measurement": "disease course (clinical scores)", "setting": "[2]; once daily sc 0.5 mg/kg A(1-7) from day 10, FIG. 1A", "result": "less severe disease course"}, {"measurement": "clinical disease score, dose comparison", "setting": "[2]; twice daily injection, total of 1.2 or 4 mg/kg/day vs 0.5 mg/kg/day, started day 11, FIG. 2", "result": "more effective in reducing clinical disease score than 0.5 mg/kg/day"}, {"measurement": "disease course (clinical scores)", "setting": "[2]; twice daily sc 0.5 mg/kg A(1-7) from day 10, FIG. 1B", "result": "less severe disease course"}, {"measurement": "disease course (disability) with duration of treatment", "setting": "[3]; PLP-EAE SJL mice, increasing duration of treatment", "result": "improves disease course (less disability) with increasing duration of treatment"}, {"measurement": "disease severity", "setting": "[3]; [4]", "result": "the disease was less severe"}, {"measurement": "onset of disease", "setting": "[3]; [4]", "result": "delayed onset of disease"}]}
